Experimental findings from patent publication US6114390A, “Amino acid derivatives, pharmaceutical compositions containing these compounds and processes for preparing them” (Karl Thomae GmbH, priority 1997, dated 2000) are described below.

Molecules are shown by their SMILES.

Experiment [1] deals with T1, humanY2 (Homo sapiens, UniProt P49146).
T1 construct: endoge- nously expressing Y1 and Y2 receptors; endogenous in cells; host or cells: SMS-KAN (neuroblastoma) cells
T1 sequence (P49146 1-381): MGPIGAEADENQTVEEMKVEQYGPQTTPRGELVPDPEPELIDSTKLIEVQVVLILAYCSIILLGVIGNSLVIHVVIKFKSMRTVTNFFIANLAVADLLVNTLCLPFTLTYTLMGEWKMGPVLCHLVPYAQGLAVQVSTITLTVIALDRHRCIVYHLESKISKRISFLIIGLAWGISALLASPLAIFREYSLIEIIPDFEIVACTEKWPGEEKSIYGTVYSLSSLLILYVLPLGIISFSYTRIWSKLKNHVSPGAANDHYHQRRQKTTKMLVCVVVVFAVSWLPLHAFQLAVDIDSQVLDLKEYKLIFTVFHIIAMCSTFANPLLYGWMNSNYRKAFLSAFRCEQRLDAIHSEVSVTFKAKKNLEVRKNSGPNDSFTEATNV
The experiment in a line: Receptor binding, SMS-KAN cells (Y2). The conditions noted are these: read-out: Affinity IC50, humanY2/SMS-KAN. How it is done: SMS-KAN (neuroblastoma) cells: Cells were grown and receptor binding assay performed analogously as described hereinbefore under A and by Wieland et al. in Peptides 16, 1389-1394 (1995).

For experiment [2], the target named is T2, human Y5 receptor (Homo sapiens, UniProt Q15761).
T2 construct: expressed in transfected cells; host or cells: HEK 293
T2 sequence (Q15761 1-445): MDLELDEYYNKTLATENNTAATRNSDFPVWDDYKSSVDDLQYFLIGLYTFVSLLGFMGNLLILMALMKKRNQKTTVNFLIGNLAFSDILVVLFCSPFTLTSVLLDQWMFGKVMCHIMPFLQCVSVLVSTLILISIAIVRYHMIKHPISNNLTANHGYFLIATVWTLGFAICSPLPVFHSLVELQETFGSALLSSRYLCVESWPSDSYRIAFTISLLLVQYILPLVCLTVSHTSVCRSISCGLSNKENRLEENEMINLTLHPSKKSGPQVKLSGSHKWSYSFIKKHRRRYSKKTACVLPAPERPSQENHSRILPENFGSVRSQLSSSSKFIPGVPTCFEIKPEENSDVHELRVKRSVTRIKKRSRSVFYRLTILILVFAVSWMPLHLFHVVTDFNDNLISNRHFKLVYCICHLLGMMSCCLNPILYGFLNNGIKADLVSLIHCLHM
The experiment is described as follows: Receptor binding, HEK 293 cells stably transfected with human Y5 receptor. As to conditions: read-out: Affinity IC50, humanY5/293. How it is done: HEK 293 cells stably transfected with human Y5 receptor:
Centrifugated cells were cultivated as described for BHK/Y1 cells except that a concentration of 0.7 mg/ml G-418 was used, no hygromycin added and no IPTG induction was necessary. The incubation buffer, cell cultivation and receptor binding was performed as described. Final concentration was 1.5×10^6 cells/ml and centrifugation stopped as described for Y1/BHK cells.

The target of experiment [3] is T3, human Y4 receptor (Homo sapiens, UniProt P50391).
T3 construct: expressed in transfected cells; host or cells: CHO
The experiment is described as follows: Receptor binding, CHO cells transiently transfected with human Y4 receptor. As to conditions: means ± S.E.M. of 3 to 5 experiments, read-out: Affinity IC50, humanY4/CHO. How it is done: CHO cells transiently transfected with human Y4 and rat Y5 receptor: Transfection was performed using the lipofectamine method according to the manufacturer's protocol (GIBCO BRL Eggenstein, Germany) using expression plasmids encoding the rat Y5 or human Y4 receptor, respectively. Receptor binding was performed as described for rat Y1 expressing HEK 293 cells.

Experiment [4] concerns the target T4, rat Y4 receptor (Rattus norvegicus, UniProt Q63447).
T4 construct: expressed in transfected cells; host or cells: BHK
The experiment is described as follows: Receptor binding, BHK cells stably transfected with rat Y4 receptor. The conditions noted are these: read-out: Affinity IC50, ratY4/BHK. How it is done:
BHK cells stably transfected with rat Y4 receptor: Cultivation and receptor binding was performed as described for hY1/BHK with exception of incubation medium (25 mM HEPES, 2.5 mM CaCl2, 1.0 mM MgCl2, pH 7.4) and final concentration of cell suspension 5×10^5 cells/ml. 24 h before receptor binding assay 1.0 mM IPTG was added for induction of expression. Incubation time for binding assay: 2 h.

T4 sequence (Q63447 whole entry): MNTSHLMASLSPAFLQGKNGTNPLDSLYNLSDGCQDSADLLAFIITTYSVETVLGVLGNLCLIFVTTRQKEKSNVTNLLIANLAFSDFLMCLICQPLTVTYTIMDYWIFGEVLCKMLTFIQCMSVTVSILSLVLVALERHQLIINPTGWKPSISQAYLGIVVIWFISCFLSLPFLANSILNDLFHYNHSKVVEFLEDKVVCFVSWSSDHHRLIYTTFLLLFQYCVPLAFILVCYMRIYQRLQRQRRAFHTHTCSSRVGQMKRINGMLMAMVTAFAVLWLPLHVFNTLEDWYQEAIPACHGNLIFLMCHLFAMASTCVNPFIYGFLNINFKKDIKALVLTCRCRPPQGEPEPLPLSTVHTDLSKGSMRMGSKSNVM
T3 sequence (P50391 whole entry): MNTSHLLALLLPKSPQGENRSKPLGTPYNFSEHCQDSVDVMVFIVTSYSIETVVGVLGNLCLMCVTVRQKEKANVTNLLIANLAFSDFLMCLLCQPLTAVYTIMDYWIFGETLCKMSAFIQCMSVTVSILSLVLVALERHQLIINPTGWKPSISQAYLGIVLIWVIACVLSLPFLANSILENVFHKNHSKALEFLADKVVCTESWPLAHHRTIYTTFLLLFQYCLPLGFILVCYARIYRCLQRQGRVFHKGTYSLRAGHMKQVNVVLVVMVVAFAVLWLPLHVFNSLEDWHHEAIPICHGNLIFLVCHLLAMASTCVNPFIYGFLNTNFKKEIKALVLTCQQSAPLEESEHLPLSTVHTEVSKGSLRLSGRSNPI

Take `N=C(N)NCCC[C@@H](NC(=O)C(c1ccccc1)c1ccccc1)C(=O)NCc1ccc(CNC(N)=O)cc1` [Compound C]: the IC50 in experiment [1] is over 10 µM; in experiment [2] it was over 10 µM; in experiment [3], 12.3 µM; in experiment [4], over 10 µM.
